# Data taken from ChEMBL document CHEMBL5053554, “Identification of novel influenza polymerase PB2 inhibitors using virtual screening approach and molecular dynamics simulation analysis of active compounds” (Bioorg Med Chem, 2021).
# How the values were obtained:
# [1] = system: Influenza A virus (A/Puerto Rico/8/1934(H1N1)); assay: Antiviral activity against Influenza A virus (A/Puerto Rico 8/1934 (H1N1)) infected in MDCK cells assessed as inhibition of virus-induced cytopathic effect measured after 72 hrs by CellTiter-Glo viability assay; format: functional, organism-based
# [2] = Antiviral activity against Influenza A virus (A/Hong Kong/1-8/1968(H3N2)) infected in MDCK cells assessed as inhibition of virus-induced cytopathic effect measured after 72 hrs by CellTiter-Glo viability assay; format: functional, cell-based
# [3] = molecular target: Polymerase basic protein 2 (Influenza A virus (strain A/Puerto Rico/8/1934 H1N1), UniProt P03428); assay: Binding affinity to CM5 immobilized N-terminal His/Sumo tagged Influenza A virus (A/WSN/1933(H1N1)) PB2 CBD (318 to 486 residues) expressed in Escherichia coli by surface plasmon resonance assay
# [4] = Cytotoxicity against MDCK cells assessed as reduction in cell viability measured after 72 hrs by CCK8 analysis; format: cell-based, Canis lupus familiaris; settings: dog
# Chain of Polymerase basic protein 2 (P03428 whole entry, the tested form may be a part): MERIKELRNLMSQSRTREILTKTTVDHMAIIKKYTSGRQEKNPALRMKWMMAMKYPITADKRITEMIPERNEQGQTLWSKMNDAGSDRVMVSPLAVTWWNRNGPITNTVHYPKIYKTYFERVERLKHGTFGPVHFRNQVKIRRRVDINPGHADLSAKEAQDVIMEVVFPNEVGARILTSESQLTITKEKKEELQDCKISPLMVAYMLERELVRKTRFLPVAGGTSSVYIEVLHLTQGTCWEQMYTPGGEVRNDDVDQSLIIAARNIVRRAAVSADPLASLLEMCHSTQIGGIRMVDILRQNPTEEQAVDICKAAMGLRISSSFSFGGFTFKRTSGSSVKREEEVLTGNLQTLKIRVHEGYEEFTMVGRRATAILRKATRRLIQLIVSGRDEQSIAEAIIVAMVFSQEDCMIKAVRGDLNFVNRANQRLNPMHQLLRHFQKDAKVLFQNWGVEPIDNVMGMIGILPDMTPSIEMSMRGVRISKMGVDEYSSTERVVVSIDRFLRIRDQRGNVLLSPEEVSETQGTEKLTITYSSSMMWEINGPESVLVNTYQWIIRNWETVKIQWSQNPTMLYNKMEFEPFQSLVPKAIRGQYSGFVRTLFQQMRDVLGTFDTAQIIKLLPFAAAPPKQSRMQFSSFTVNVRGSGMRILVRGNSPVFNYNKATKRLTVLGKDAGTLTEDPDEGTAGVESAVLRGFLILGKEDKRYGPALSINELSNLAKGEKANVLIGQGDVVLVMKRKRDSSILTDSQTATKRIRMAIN
Compound,EC50 [1],EC50 [2],Kd [3],CC50 at 72 h [4]
O=C(O)CSc1nc(-c2ccccc2)nc2c1oc1ccccc12,22.4 µM,27 µM,0.25 µM,> 100 µM
O=C(c1cc(=O)[nH]c2ccccc12)N1CCc2[nH]c3ccccc3c2C1,42.8 µM,41.5 µM,1.6 µM,> 100 µM
O=c1[nH]c2ccc(NCc3ccc(Cl)c(Cl)c3)cc2[nH]1,21.7 µM,7.44 µM,6.4 µM,> 100 µM
CCC(CC)O[C@@H]1C=C(C(=O)O)C[C@H](N)[C@H]1NC(C)=O [OSELTAMIVIR CARBOXYLATE],3.07 µM,0.03 µM,,> 100 µM
O=C1c2ccccc2C(=O)c2cc(OC[C@H](O)Cn3cnc4ccccc43)ccc21,33.2 µM,25.2 µM,2.2 µM,> 100 µM
Cc1c(O[C@H](C(=O)O)c2ccccc2)ccc2c1oc(=O)c1ccccc12,26.5 µM,15.1 µM,0.11 µM,> 100 µM
O=C(O)[C@H]1C2CCC(CC2)[C@@H]1Nc1nc(-c2c[nH]c3ncc(F)cc23)ncc1F [PIMODIVIR],< 0.005 µM,1.84 µM,0.054 µM,> 100 µM
O=C(O)CSc1cc(O)c2c(c1O)C(=O)c1ccccc1C2=O,5.81 µM,7.55 µM,0.58 µM,49.7 µM
